Test results published in PubChem BioAssay AID1259411 (Chemical Carcinogenesis Research Information System (CCRIS), 2018).
Active and inactive are the calls of the source. The rule behind the calls is not given here.

Tested on: rodent carcinogenicity bioassays, tumor incidence
Experiment: CCRIS carcinogenicity studies
Method in brief: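 Archive of carcinogenicity, mutagenicity, tumor promotion and tumor inhibition results drawn from journals, NCI reports and other sources, expert-reviewed; covers 1985-2011 and is no longer updated.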

[1] = Species: MOUSE, Route: ORAL, Tumor Site: Type of Lesion: LIVER

## COC(N)=O
Species: MOUSE, Strain/Sex: B6C3F1/FEMALE, Route: GAVAGE, Dose: 0, 500, 1000 MG/KG IN DISTILLED WATER 5D/WK FOR 103 WK (STUDY DURATION: 105 WK), 1000 MG/KG IN DISTILLED WATER 5D/WK FOR, Dose: 0, 500, 1000 MG/KG IN DISTILLED WATER 5D/WK FOR 103 WK (STUDY DURATION: 105 WK), 1000 MG/KG IN DISTILLED WATER 5D/WK FOR
  carcinogen call: inactive; negative
Species: MOUSE, Strain/Sex: B6C3F1/MALE, Route: GAVAGE, Dose: 0, 500, 1000 MG/KG IN DISTILLED WATER 5D/WK FOR 103 WK (STUDY DURATION: 105 WK);1000 MG/KG IN DISTILLED WATER 5D/WK FOR, Dose: 0, 500, 1000 MG/KG IN DISTILLED WATER 5D/WK FOR 103 WK (STUDY DURATION: 105 WK);1000 MG/KG IN DISTILLED WATER 5D/WK FOR
  carcinogen call: inactive; negative
Species: RAT, Strain/Sex: F344/FEMALE, Route: GAVAGE, Dose: 0, 100, 200 MG/KG IN DISTILLED WATER 5D/WK FOR 103 WK (STUDY DURATION: 105 WK), 400 MG/KG IN DISTILLED WATER 5D/WK FOR 6, Dose: 0, 100, 200 MG/KG IN DISTILLED WATER 5D/WK FOR 103 WK (STUDY DURATION: 105 WK), 400 MG/KG IN DISTILLED WATER 5D/WK FOR 6, Tumor Site: Type of Lesion: LIVER: NEOPLASTIC NODULE, LIVER: NEOPLASTIC NODULE OR HEPATOCELLULAR CARCINOMA, LIVER: HEPATOCELLULAR CARCINOMA, Tumor Site: Type of Lesion: LIVER: NEOPLASTIC NODULE, LIVER: NEOPLASTIC NODULE OR HEPATOCELLULAR CARCINOMA, LIVER: HEPATOCELLULAR CARCINOMA
  carcinogen call: active; positive
Species: RAT, Strain/Sex: F344/MALE, Route: GAVAGE, Dose: 0, 100, 200 MG/KG IN DISTILLED WATER 5D/WK FOR 103 WK (STUDY DURATION: 105 WK), 400 MG/KG IN DISTILLED WATER 5D/WK FOR 6, Dose: 0, 100, 200 MG/KG IN DISTILLED WATER 5D/WK FOR 103 WK (STUDY DURATION: 105 WK), 400 MG/KG IN DISTILLED WATER 5D/WK FOR 6, Tumor Site: Type of Lesion: LIVER: NEOPLASTIC NODULES, LIVER: HEPATOCELLULAR CARCINOMA
  carcinogen call: active; positive

## C=CCc1ccc(OC)cc1
Species: MOUSE, Strain/Sex: B6C3F1/MALE, Route: INTRAPERITONEAL, Dose: 0, 4.75 UMOL TOTAL DOSE, D 1,8,15 AND 22 AFTER BIRTH, AUTOPSIED AT 13-18 MO, Dose: 0, 4.75 UMOL TOTAL DOSE, D 1,8,15 AND 22 AFTER BIRTH, AUTOPSIED AT 13-18 MO, Tumor Site: Type of Lesion: LIVER: HEPATOMA
  carcinogen call: active; positive
Species: MOUSE, Strain/Sex: C3H/MALE, Route: INTRAPERITONEAL, Dose: 0, 9.45 UMOL TOTAL DOSE, D 1,8,15 AND 22 AFTER BIRTH, AUTOPSIED AT 12 MO, Dose: 0, 9.45 UMOL TOTAL DOSE, D 1,8,15 AND 22 AFTER BIRTH, AUTOPSIED AT 12 MO, Tumor Site: Type of Lesion: LIVER: HEPATOMA
  carcinogen call: active; positive
Species: MOUSE, Strain/Sex: CD-1/FEMALE, Route: ORAL, Dose: 0, 0.23, 0.46% IN DIET, FOR 12 MO, Dose: 0, 0.23, 0.46% IN DIET, FOR 12 MO, Tumor Site: Type of Lesion: LIVER: HEPATOMA
  carcinogen call: active; positive
Species: MOUSE, Strain/Sex: CD-1/MALE,FEMALE, Route: GAVAGE, Dose: 0, 25 UMOL/G TOTAL DOSE, 2/WK FOR 5 WK BEGINNING ON D 4 AFTER BIRTH, AUTOPSIED AT 11-14 MO, Dose: 0, 25 UMOL/G TOTAL DOSE, 2/WK FOR 5 WK BEGINNING ON D 4 AFTER BIRTH, AUTOPSIED AT 11-14 MO, Tumor Site: Type of Lesion: LIVER: HEPATOMA
  carcinogen call: active; positive
Species: MOUSE, Strain/Sex: CD-1/MALE, Route: SUBCUTANEOUS, Dose: 0, 0.17, 0.35 UMOL IN 0.025 ML TRIOCTANOIN WITHIN 24 HR AFTER BIRTH THEN 0, 0.47, 0.69 UMOL IN 0.05 ML TRIOCTANOIN ON D, Dose: 0, 0.17, 0.35 UMOL IN 0.025 ML TRIOCTANOIN WITHIN 24 HR AFTER BIRTH THEN 0, 0.47, 0.69 UMOL IN 0.05 ML TRIOCTANOIN ON D, Tumor Site: Type of Lesion: LIVER: HEPATOCELLULAR CARCINOMA
  carcinogen call: active; positive
Species: MOUSE, Strain/Sex: CD-1/MALE, Route: SUBCUTANEOUS, Dose: 0, 4.43, 5.19 UMOL TOTAL DOSE, D 1,8,15 AND 22 AFTER BIRTH, Dose: 0, 4.43, 5.19 UMOL TOTAL DOSE, D 1,8,15 AND 22 AFTER BIRTH, Tumor Site: Type of Lesion: LIVER: HEPATOCELLULAR CARCINOMA
  carcinogen call: active; positive
Species: Mouse, Strain/Sex: ICR/Female (30 324 day survivors/Group), Route: Intraperitoneal injection, Dose: 150 mg/kg bw a wk for 17 wks, study duration 537 days, Tumor Site: Type of Lesion: Liver: Hepatocellular adenoma and carcinoma
  carcinogen call: active; positive (80% incidence). apparent lack of concurrent controls.

## Cc1cc(O)c2c(c1O)C(=O)C13C(=C2O)C(=O)C2C(O)C1C1C(O)C3C(=O)C3=C(O)c4c(O)cc(C)c(O)c4C(=O)C321 (configuration not stated)
[1]
  carcinogen call: active; positive

## Clc1c(Cl)c(Cl)c(Cl)c(Cl)c1Cl
Species: HAMSTER, Route: ORAL, Tumor Site: Type of Lesion: THYROID GLAND, LIVER
  carcinogen call: active; positive
[1]
  carcinogen call: active; positive
Species: RAT, Strain/Sex: F344/FEMALE, Route: ORAL, Dose: 0, 0.02% IN DIET FOR 30 WK (STUDY DURATION: 35 WK)
  carcinogen call: inactive; negative
Species: RAT, Strain/Sex: F344/FEMALE, Route: ORAL, Dose: 0, 0.02% OF DIET FOR 90 WK (STUDY DURATION: 90 WK), Tumor Site: Type of Lesion: LIVER: HEPATOCELLULAR CARCINOMA OR NEOPLASTIC NODULE
  carcinogen call: active; positive
Species: RAT, Strain/Sex: F344/MALE, Route: ORAL, Dose: 0, 0.02% IN DIET FOR 30 WK (STUDY DURATION: 35 WK)
  carcinogen call: inactive; negative
Species: RAT, Strain/Sex: F344/MALE, Route: ORAL, Dose: 0, 0.02% OF DIET FOR 90 WK (STUDY DURATION: 90 WK)
  carcinogen call: inactive; negative

## O=[N+]([O-])c1ccc(N=Nc2c(O)ccc3ccccc23)c([N+](=O)[O-])c1
Species: MOUSE, Strain/Sex: ICR/FEMALE, Route: DERMAL, Dose: 0, 1 MG IN 0.1 ML DISTILLED WATER 2/WK FOR A MEAN TOTAL DOSE OF 143.7 MG (STUDY DURATION: 18 MO)
  carcinogen call: inactive; negative
Species: MOUSE, Strain/Sex: ICR/MALE, Route: DERMAL, Dose: 0, 1 MG IN 0.1 ML DISTILLED WATER 2/WK FOR A MEAN TOTAL DOSE OF 143.7 MG (STUDY DURATION: 18 MO)
  carcinogen call: inactive; negative

## C[C@@H]1O[C@@H]1Cl
Species: MOUSE, Strain/Sex: ICR/FEMALE, Route: DERMAL, Dose: 10 MG IN 0.1 ML ACETONE 3/WK FOR LIFE, Tumor Site: Type of Lesion: INTEGUMENTARY SYSTEM (SKIN): PAPILLOMA, SQUAMOUS CELL CARCINOMA
  carcinogen call: active; positive

## CC1(C)[C@@H](O[C@H]2O[C@H](C(=O)O)[C@@H](O)[C@H](O)[C@H]2O[C@@H]2O[C@H](C(=O)O)[C@@H](O)[C@H](O)[C@H]2O)CC[C@]2(C)[C@H]3C(=O)C=C4[C@@H]5C[C@@](C)(C(=O)O)CC[C@]5(C)CC[C@@]4(C)[C@]3(C)CC[C@@H]12
Species: MOUSE, Strain/Sex: B6C3F1/FEMALE, Route: ORAL, Dose: 0, 0.08, 0.15, 0.3% IN DRINKING WATER FOR 96 WK (STUDY DURATION: 110 WK), Dose: 0, 0.08, 0.15, 0.3% IN DRINKING WATER FOR 96 WK (STUDY DURATION: 110 WK)
  carcinogen call: inactive; negative
Species: MOUSE, Strain/Sex: B6C3F1/MALE, Route: ORAL, Dose: 0, 0.04, 0.08, 0.15% IN DRINKING WATER FOR 96 WK (STUDY DURATION: 110 WK), Dose: 0, 0.04, 0.08, 0.15% IN DRINKING WATER FOR 96 WK (STUDY DURATION: 110 WK)
  carcinogen call: inactive; negative

## NC(N)=NC(N)=NCCc1ccccc1
Species: MOUSE, Strain/Sex: B6C3F1/FEMALE, Route: ORAL, Dose: 0, 1200, 2500 PPM IN DIET, Dose: 0, 1200, 2500 PPM IN DIET
  carcinogen call: inactive; negative
Species: MOUSE, Strain/Sex: B6C3F1/MALE, Route: ORAL, Dose: 0, 1200, 2500 PPM IN DIET, Dose: 0, 1200, 2500 PPM IN DIET
  carcinogen call: inactive; negative
Species: RAT, Strain/Sex: F344/FEMALE, Route: ORAL, Dose: 0, 15000, 30000 PPM IN DIET, Dose: 0, 15000, 30000 PPM IN DIET
  carcinogen call: inactive; negative
Species: RAT, Strain/Sex: F344/MALE, Route: ORAL, Dose: 0, 15000, 30000 PPM IN DIET, Dose: 0, 15000, 30000 PPM IN DIET
  carcinogen call: inactive; negative
